Source: ChEMBL document CHEMBL1201862, “PubChem BioAssay data set” (2004)
Activity calls are given as the source filed them.

Tests used:
[1] = biological target: T1, Caspase-3 (Homo sapiens, UniProt P42574); format: functional;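 further: Dose-response selectivity test against caspase-3 for candidate inhibitors of sentrin-specific proteases (SENPs)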
T1 sequence (P42574 whole entry): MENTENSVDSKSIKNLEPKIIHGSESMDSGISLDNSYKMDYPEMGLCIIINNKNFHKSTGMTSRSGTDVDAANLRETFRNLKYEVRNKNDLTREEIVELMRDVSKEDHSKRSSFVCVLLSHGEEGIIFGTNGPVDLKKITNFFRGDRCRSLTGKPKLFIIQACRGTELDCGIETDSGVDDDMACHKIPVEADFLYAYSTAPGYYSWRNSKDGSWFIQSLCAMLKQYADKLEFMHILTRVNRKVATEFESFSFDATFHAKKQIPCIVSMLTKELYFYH

[2] = biological target: T2, Sentrin-specific protease 7 (Homo sapiens, UniProt Q9BQF6); format: functional;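 further: Luminescence-based dose-response confirmation of ultra-high-throughput screening hits, measuring inhibition of SENP7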
T2 sequence (Q9BQF6 whole entry): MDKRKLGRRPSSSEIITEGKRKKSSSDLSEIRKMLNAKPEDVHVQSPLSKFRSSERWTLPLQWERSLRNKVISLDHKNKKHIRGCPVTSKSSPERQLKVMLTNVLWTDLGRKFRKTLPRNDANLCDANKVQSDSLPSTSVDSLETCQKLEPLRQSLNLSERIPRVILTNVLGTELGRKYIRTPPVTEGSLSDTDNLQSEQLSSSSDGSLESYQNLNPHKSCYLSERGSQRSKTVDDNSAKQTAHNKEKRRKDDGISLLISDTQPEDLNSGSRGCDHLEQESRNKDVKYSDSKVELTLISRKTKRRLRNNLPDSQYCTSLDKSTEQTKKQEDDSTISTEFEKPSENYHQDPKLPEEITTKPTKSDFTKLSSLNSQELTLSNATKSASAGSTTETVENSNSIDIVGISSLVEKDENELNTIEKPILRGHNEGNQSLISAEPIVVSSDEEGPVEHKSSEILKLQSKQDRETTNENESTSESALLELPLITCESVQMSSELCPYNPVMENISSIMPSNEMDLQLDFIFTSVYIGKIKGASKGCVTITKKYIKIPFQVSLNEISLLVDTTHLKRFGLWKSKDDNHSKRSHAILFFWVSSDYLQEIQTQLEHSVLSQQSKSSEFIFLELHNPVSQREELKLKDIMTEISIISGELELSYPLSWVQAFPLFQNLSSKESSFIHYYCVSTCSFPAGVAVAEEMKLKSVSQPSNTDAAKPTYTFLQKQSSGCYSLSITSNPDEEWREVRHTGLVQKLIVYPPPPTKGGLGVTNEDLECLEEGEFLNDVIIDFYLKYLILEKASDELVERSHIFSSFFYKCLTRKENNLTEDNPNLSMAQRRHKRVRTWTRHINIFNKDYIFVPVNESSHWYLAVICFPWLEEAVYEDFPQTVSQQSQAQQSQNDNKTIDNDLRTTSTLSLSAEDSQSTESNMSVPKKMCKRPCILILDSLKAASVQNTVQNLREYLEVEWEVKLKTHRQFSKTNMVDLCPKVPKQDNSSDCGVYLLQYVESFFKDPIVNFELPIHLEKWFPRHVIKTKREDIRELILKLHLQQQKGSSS

[3] = biological target: T3, Sentrin-specific protease 6 (Homo sapiens, UniProt Q9GZR1); format: functional;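 further: Luminescence-based dose-response confirmatory assay of SENP6 inhibition, following up an ultra-high-throughput screen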
T3 sequence (Q9GZR1 whole entry): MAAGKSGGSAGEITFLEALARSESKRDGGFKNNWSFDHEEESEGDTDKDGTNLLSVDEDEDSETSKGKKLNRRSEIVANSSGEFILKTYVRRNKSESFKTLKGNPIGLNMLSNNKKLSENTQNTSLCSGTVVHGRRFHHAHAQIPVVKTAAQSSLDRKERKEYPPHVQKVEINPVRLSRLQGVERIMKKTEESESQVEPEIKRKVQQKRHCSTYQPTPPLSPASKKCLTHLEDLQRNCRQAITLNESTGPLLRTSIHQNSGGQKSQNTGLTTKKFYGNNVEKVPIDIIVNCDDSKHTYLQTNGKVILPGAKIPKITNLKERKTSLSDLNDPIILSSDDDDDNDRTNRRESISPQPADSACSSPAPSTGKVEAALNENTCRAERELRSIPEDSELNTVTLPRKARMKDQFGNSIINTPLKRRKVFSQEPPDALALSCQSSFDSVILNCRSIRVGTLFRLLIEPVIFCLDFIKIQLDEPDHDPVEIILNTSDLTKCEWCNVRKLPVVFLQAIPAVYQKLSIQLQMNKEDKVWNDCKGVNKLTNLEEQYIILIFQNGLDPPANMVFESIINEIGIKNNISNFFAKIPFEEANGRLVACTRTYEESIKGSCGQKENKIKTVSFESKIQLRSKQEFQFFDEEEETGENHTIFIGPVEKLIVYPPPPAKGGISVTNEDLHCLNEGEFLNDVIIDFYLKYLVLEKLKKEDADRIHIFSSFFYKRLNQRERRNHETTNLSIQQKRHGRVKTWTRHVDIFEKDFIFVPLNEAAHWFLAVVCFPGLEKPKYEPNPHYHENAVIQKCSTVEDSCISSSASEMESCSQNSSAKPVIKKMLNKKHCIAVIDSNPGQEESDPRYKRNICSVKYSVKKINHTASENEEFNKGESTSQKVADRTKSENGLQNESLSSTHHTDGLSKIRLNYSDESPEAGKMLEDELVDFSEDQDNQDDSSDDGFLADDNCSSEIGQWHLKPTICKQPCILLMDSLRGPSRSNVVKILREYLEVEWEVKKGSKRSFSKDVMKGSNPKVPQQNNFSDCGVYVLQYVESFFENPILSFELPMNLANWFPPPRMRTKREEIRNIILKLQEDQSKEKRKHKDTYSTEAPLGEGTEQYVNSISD

[4] = biological target: T4, Sentrin-specific protease 8 (Homo sapiens, UniProt Q96LD8); format: functional;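 further: luminescence read-out of SENP8 inhibition, dose-response confirmation following an ultra-high-throughput screen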
T4 sequence (Q96LD8 whole entry): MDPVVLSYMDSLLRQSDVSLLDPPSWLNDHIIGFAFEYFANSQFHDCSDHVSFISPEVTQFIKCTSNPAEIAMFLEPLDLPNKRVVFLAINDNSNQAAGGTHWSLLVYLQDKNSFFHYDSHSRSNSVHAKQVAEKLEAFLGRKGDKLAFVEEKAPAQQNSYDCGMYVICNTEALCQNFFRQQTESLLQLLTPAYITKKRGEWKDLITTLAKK

[5] = Artemis endonuclease inhibitor potency, dose response, biochemical, fluorescence intensity (AID 720701); format: functional;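 further: Artemis endonuclease enzyme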
[6] = biological target: Glutathione-S-transferase (Schistosoma japonicum, UniProt Q26513); assay: biotin-GST/anti-GST TR-FRET signal inhibitors, dose response, artefact control for Vif-APOBEC3G degradation inhibitor project, biochemical (AID 1117362); format: functional
Glutathione-S-transferase, sequence (Q26513 whole entry): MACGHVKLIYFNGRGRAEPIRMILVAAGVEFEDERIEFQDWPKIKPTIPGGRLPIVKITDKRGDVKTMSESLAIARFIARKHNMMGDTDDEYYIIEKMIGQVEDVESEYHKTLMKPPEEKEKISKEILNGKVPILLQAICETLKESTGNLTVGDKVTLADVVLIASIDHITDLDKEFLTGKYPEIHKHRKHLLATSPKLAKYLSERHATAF

[7] = biological target: Paired box protein Pax-8 (Homo sapiens, UniProt Q06710); assay: inhibitors of PAX8-driven TPO luciferase reporter, dose response, RMG-I cells, cherry-pick (AID 687027); format: functional, cell-based;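 further: luciferase reporter driven by Pax8 target thyroperoxidase promoter measured by SteadyGlo luminescence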
Paired box protein Pax-8, sequence (Q06710 whole entry): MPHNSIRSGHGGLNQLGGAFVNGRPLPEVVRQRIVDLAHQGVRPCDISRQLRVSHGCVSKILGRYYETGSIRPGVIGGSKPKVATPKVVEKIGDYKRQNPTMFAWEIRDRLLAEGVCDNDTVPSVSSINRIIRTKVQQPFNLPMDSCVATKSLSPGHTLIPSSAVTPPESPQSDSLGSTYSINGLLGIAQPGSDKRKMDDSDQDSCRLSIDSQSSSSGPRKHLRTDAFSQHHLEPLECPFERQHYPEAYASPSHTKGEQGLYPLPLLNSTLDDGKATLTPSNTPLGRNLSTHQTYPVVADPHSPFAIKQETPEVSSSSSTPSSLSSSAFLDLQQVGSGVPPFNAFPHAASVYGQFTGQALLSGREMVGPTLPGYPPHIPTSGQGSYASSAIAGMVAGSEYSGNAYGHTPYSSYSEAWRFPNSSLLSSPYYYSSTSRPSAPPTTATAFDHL

[8] = PAX2 cell-based inhibition, dose response, selectivity assay for PAX8 inhibitor project, plate reader, dry powder samples (AID 743048); format: functional;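 further: HEK293 cells carrying a WT1 promoter luciferase reporter driven by expressed Pax2; potency is for inhibition of Pax2 driven reporter signal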
[9] = cytotoxicity in COV362 ovarian cancer cells, dose response, cytotoxicity control for PAX8 inhibitor project, cell-based, plate reader, dry powder, SA12 (AID 743144); format: functional
[10] = IOSE-T80 ovarian epithelial cell cytotoxicity, dose response, cytotoxicity control for PAX8 inhibitor project, plate reader, dry powder samples (AID 743045); format: functional, cell-based
[11] = inhibitors of CMV-promoter luciferase reporter, dose response, counter-screen for Pax8 inhibitor project, cell-based, HEK293, luminescence, dry powder (AID 743020); format: functional
[12] = NIH:OVCAR-3 ovarian cancer cell cytotoxicity, dose response, PAX8 inhibitor project, plate reader, dry powder samples (AID 743044); format: functional, cell-based
[13] = PAX5 activity inhibitors, dose response, selectivity assay for PAX8 inhibitor project, cell-based, plate reader, dry powder samples (AID 743047); format: functional;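 further: HEK293 cells carrying a Pax5 driven CD19 promoter luciferase reporter; potency of inhibitors that lower reporter luminescence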
[14] = A549 cell cytotoxicity, dose response, cytotoxicity control, plate reader, cherry-pick, antagonist series (AID 743412); format: functional, cell-based
[15] = HepG2 cell cytotoxicity, dose response, cytotoxicity control, plate reader, cherry-pick, antagonist series (AID 743416); format: functional, cell-based
[16] = IGROV1 ovarian cancer cell cytotoxicity, dose response, PAX8 inhibitor project, plate reader, dry powder samples (AID 743043); format: functional, cell-based; details: IGROV-1
[17] = LGR2 antagonists, dose response, cell-based, HEK293, CRE-luciferase reporter, cherry pick, set 2 (AID 743343); format: functional;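 further: transfected cells were stimulated with diluted bursicon conditioned medium after compound addition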
[18] = cytotoxicity in COV434 cells, dose response, cytotoxicity control for PAX8 inhibitor project, cell-based, plate reader, dry powder, SA7 (AID 743145); format: functional
[19] = cytotoxicity in OV-90 ovarian cancer cells, dose response, PAX8 inhibitor project, cell-based, plate reader, dry powder, SA8 (AID 743149); format: functional
[20] = MC4R antagonists, dose response, counter-screen for LGR2 antagonist project, cell-based, plate reader, cherry pick (AID 743444); format: functional;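 further: transfected HEK 293 cells stimulated with alpha-MSH peptide; potency of inhibitors of the alpha-MSH evoked signal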
[21] = cytotoxicity in OVCAR8 ovarian cancer cells, dose response, PAX8 project, cell-based, plate reader, dry powder samples (AID 743197); format: functional; details: OVCAR-8
[22] = cytotoxicity dependent on PAX8, dose response, cell-based, plate reader, dry powder (AID 743049); format: functional
[23] = HEK293 cell cytotoxicity, dose response, cytotoxicity control, plate reader, cherry-picked samples (AID 743446); format: functional, cell-based
[24] = A549 cell cytotoxicity, dose response, cytotoxicity control, cherry-picks, 26 µM top dose (AID 1053119); format: functional, cell-based
[25] = P. falciparum Dd2 growth inhibitors, dose response, SYBR Green, cherry-picked samples (AID 1159567); format: functional, cell-based
[26] = fibronectin fibrillogenesis inhibitors in fibroblasts, dose response, AH1F cells, Alexa488-fibronectin fluorescence, cherry-pick, set 2 (AID 1117283); format: functional, cell-based
[27] = HepG2 cell cytotoxicity, dose response, cytotoxicity control, cherry-picked samples (AID 1159577); format: functional, cell-based
[28] = TB: CFU replicating Measured in Microorganism System Using Imaging - 7108-05_Inhibitor_Dose_DryPowder_Activity_Set2.; format: functional

With Brc1ccc(-c2cn3nc4c(nc3n2)CCCC4)cc1 the IC50 [1] was 17.4 µM (active), the IC50 [2] was 21.2 µM (active) and the IC50 [3] was 12.3 µM (active). The IC50 [4] was 17.7 µM (active) and the IC50 [5] was > 20 µM (inactive).
In the case of O=C(O)c1ccc(S(=O)(=O)c2ccc([N+](=O)[O-])cc2[N+](=O)[O-])cc1, the IC50 [6] is reported as > 100 µM (active).
In the case of N#C[C@@H]1[C@H](c2ccc(C#Cc3ccc(F)cc3)cc2)[C@@H](CO)N1C(=O)Nc1ccc(F)cc1, the AC50 [7] is reported as 4.38 µM (active), the AC50 [8] is reported as 12.9 µM (active) and the AC50 [9] is reported as 44.7 µM (active). For the same compound, the AC50 [10] was 24 µM (active), the AC50 [11] was 5.19 µM (active) and the AC50 [12] was 30.9 µM (active). The AC50 [13] was 15.8 µM (active), the AC50 [14] was 14.3 µM (active) and the AC50 [15] was 16.8 µM (active). For the same compound, the AC50 [16] was 23.1 µM (active), the AC50 [17] was 34.4 µM (active) and the AC50 [18] was > 70 µM (inactive). For the same compound, the AC50 [19] was > 70 µM (inactive), the AC50 [20] was 35.9 µM (active) and the AC50 [21] was 22.2 µM (active). The AC50 [22] was 33.8 µM (active) and the AC50 [23] was 27.9 µM (active).
With C[C@@H]1CN([C@@H](C)CO)C(=O)c2cccc(NC(=O)Nc3ccc(C(F)(F)F)cc3)c2O[C@H]1CN(C)C(=O)Nc1cccc2ccccc12 the AC50 [24] was > 52 µM (inactive), the AC50 [25] was 7.88 µM (active) and the AC50 [26] was > 70 µM (inactive). The AC50 [27] was > 39 µM (inactive).
Cn1c(NC(=O)c2ccccn2)nc2ccccc21 gave an AbsAC90 [28] of 274.28 µM.
